Laboratory results as given in patent US20080051429A1, “USE OF 4-AMINO-PIPERIDINES FOR TREATING SLEEP DISORDERS” (priority 2006, published 2008).
Structures can show the parent of a compound that is named as a salt. Where two headings read alike, the source gives them in different places.

Molecular target: T1, 5-HT2A receptor (Homo sapiens, UniProt P28223)
T1 construct: expressed in transfected cells; host or cells: NIH3T3 cells, pSI expression vector
Assay: R-SAT functional receptor assay
Format: cell-based
Settings: for Emax: 120 h
Description: The functional receptor assay, Receptor Selection and Amplification Technology (R-SAT), was used (with minor modifications from that previously described U.S. Pat. No. 5,707,798) to screen compounds for efficacy at the 5-HT2A receptor. Briefly, NIH3T3 cells were grown in 96 well tissue culture plates to 70-80% confluence. Cells were transfected for 12-16 hours with plasmid DNAs using superfect (Qiagen Inc.) as per manufacture's protocols. R-SAT's were generally performed with 50 ng/well of receptor and 20 ng/well of Beta-galactosidase plasmid DNA. All receptor and G-protein constructs used were in the pSI mammalian expression vector (Promega Inc) as described in U.S. Pat. No. 5,707,798. The 5HT2A receptor gene was amplified by nested PCR from brain cDNA using the oligodeoxynucleotides based on the published sequence (see Saltzman et. al. Biochem. Biophys. Res. Comm. 181:1469-78 (1991)). Large-scale transfections, cells were transfected for 12-16 hours, then trypsinized and frozen in DMSO. Frozen cells were later thawed, plated at 10,000-40,000 cells per well of a 96 well plate that contained drug. With both methods, cells were then grown in a humidified atmosphere with 5% ambient CO2 for five days. Media was then removed from the plates and marker gene activity was measured by the addition of the beta-galactosidase substrate ONPG (in PBS with 5% NP-40). The resulting colorimetric reaction was measured in a spectrophotometric plate reader (Titertek Inc.)at […]. All data were analyzed using the computer program XLFit (IDBSm). Efficacy is the percent maximal repression compared to repression by a control compound (ritanserin in the case of 5HT2A). pIC50 is the negative of the log(IC50), where IC50 is the calculated concentration in Molar that produces 50% maximal repression.
Briefly, the 5-HT2A receptor, and the alpha subunit of the guanine nucleotide binding protein Gq were transiently transfected into NIH3T3 cells and assayed using the functional receptor assay, Receptor Selection and Amplification Technology (R-SAT) essentially as disclosed in U.S. Pat. No. 5,707,798. Each compound was screened at seven serially diluted concentrations in triplicate. Data were analyzed using least squares fit analysis with GraphPad Prism (San Diego, Calif.), and are reported normalized to percent response.
R-SAT assays (as described in Example 42) were carried out with cells transfected with receptors (listed below) to determine the receptor selectivity profile for compound 26HCH16D. 5HT2A inverse agonist data (IC50 nM; % efficacy) were derived from detailed dose response curves (7 points in triplicate).
(§1) The functional receptor assay, Receptor Selection and Amplification Technology (R-SAT), was used (with minor modifications from that previously described U.S. Pat. No. 5,707,798) to screen compounds for efficacy at the 5-HT2A receptor. The RSAT assay was conducted as described herein.
as §1, with “5,707,798, which is incorporated herein by reference in its entirety)” for “5,707,798)”

[1] = compared to ritanserin, read-out: 5HT2A % inhibition
[2] = Table 6, read-out: 5HT2A pIC50 (converted)
[3] = Table 5, read-out: 5HT2A pIC50 (converted)

T1 sequence (P28223 whole entry): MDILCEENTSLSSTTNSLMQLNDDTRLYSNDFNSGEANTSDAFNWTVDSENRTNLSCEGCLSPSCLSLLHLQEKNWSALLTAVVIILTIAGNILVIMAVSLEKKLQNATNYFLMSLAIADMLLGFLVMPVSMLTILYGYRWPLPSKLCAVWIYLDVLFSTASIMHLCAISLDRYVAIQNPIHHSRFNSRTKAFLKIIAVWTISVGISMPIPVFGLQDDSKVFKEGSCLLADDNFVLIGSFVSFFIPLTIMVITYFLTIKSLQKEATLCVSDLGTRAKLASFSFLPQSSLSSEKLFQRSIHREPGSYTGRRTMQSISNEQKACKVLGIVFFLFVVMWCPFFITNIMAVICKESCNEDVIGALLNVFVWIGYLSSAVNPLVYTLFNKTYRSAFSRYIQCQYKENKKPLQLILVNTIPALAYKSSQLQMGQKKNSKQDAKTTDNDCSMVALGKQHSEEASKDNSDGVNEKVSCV

Compound: CC(C)COc1ccc(CN2C(=O)OC3(CCN(CCC4OCCO4)CC3)C2Cc2ccc(F)cc2)cc1 (centres unmarked) [Example 69NLS79-II, 8-(2-[1,3]Dioxolan-2-yl-ethyl)-4-(4-fluorobenzyl)-3-(4-isobutoxybenzyl)-1-oxa-3,8-diaza-spiro[4.5]decan-2-one, hydrochloride]
- Emax [1]: 101%
- IC50 [2]: 7.94 nM

Compound: CC(C)COc1ccc(CN2C(=O)OC3(CCNCC3)C2Cc2ccc(F)cc2)cc1 (centres unmarked) [Example 69NLS81, 4-(4-Fluorobenzyl)-3-(4-isobutoxybenzyl)-1-oxa-3,8-diaza-spiro[4.5]decan-2-one, hydrochloride]
- Emax [1]: 85%
- IC50 [2]: 5.01 nM

Compound: CC(C)COc1ccc(CN2C(=O)OC3(CCN(CCCN4CCOCC4)CC3)C2Cc2ccc(F)cc2)cc1 (centres unmarked) [Example 69NLS83, 4-(4-Fluorobenzyl)-3-(4-isobutoxybenzyl)-8-(3-morpholin-4-yl-propyl)-1-oxa-3,8-diaza-spiro[4.5]decan-2-one, dihydrochloride]
- Emax [1]: 85%
- IC50 [2]: 10 nM

Compound: CC(C)COc1ccc(CN2C(=O)OC3(CCN(C(C)C)CC3)C2Cc2ccc(F)cc2)cc1 (centres unmarked) [Example 69NLS85, 4-(4-Fluorobenzyl)-3-(4-isobutoxybenzyl)-8-isopropyl-1-oxa-3,8-diaza-spiro[4.5]decan-2-one, hydrochloride]
- Emax [1]: 95%
- IC50 [2]: 0.794 nM

Compound: CC(C)COc1ccc(CC(=O)N(Cc2ccc(F)cc2)C2CCN(CCCN3CCCC3=O)CC2)cc1 [Example 098AF76-65, N-(4-Fluorobenzyl)-2-(4-isobutoxyphenyl)-N-{1-[3-(2-oxo-pyrrolidin-1-yl)propyl]piperidin-4-yl}acetamide, hydrochloride]
- Emax (read-out: 5HT2A % INH, compared to ritanserin): 100%
- IC50 [3]: 0.794 nM

Compound: CC(C)COc1ccc(CC(=O)N(Cc2ccc(F)cc2)C2CCN(CCCN3CC(C)CC(C)C3)CC2)cc1 (centres unmarked) [Example 103NLS45-B, N-{1-[3-(3,5-Dimethylpiperidin-1-yl)propyl]piperidin-4-yl}-N-(4-fluorobenzyl)-2-(4-isobutoxyphenyl)acetamide, dihydrochloride]
- Emax (read-out: 5HT2A % INH): 84%
- IC50 [3]: 25.1 nM

Compound: CC(C)COc1ccc(CC(=O)N(Cc2ccc(F)cc2)C2CCN(CCCN3CC(C)OC(C)C3)CC2)cc1 (centres unmarked) [Example 103NLS69-A, N-{1-[3-(2,6-Dimethylmorpholin-4-yl)propyl]piperidin-4-yl}-N-(4-fluorobenzyl)-2-(4-isobutoxyphenyl)acetamide, dioxalate]
- Emax (read-out: 5HT2A % INH): 96%
- IC50 [3]: 2 nM

Compound: CCCOc1ccc(CC(=O)N(CCc2ccc(F)cc2)C2CCN(CCCN3C(=O)OC[C@@H]3C(C)C)CC2)cc1 [Example 117NLS03-B, N-[2-(4-Fluorophenyl)ethyl]-N-{1-[3-(4-(S)-isopropyl-2-oxo-oxazolidin-3-yl)propyl]piperidin-4-yl}-2-(4-propoxyphenyl)acetamide, oxalate]
- IC50 (5HT2A pIC50, Table 5): 3.98 nM
- Emax (read-out: 5HT2A % INH): 85%

Compound: CC(C)COc1ccc(CNC(=O)N(Cc2ccc(F)cc2)C2CCN(CCC3OCCCO3)CC2)cc1 [Example 117NLS25, N-{1-[2-(1,3-Dioxan-2-yl)ethyl]piperidin-4-yl}-N-(4-fluorobenzyl)-N′-(4-isobutoxybenzyl)carbamide, tartrate]
- Emax (read-out: 5HT2A % INH): 94%
- IC50 [3]: 1.26 nM

Compound: CC[C@H]1COC(=O)N1CCCN1CCC(N(Cc2ccc(F)cc2)C(=O)Cc2ccc(OCC(C)C)cc2)CC1 [Example 118AF16-80, N-(4-Fluorobenzyl)-2-(4-isobutoxyphenyl)-N-{1-[3-((S)-4-ethyl-2-oxo-oxazolidin-3-yl)-propyl]piperidin-4-yl}acetamide, oxalate]
- IC50 (5HT2A pIC50, Table 5): 0.794 nM
- Emax (read-out: 5HT2A % INH): 103%

Compound: CC(C)COc1ccc(CC(=O)N(Cc2ccc(F)cc2)C2CCN(CCC3OC(C)CC(C)O3)CC2)cc1 (centres unmarked) [Example 118AF37-88, N-{1-[2-(4,6-Dimethyl-1,3-dioxan-2-yl)ethyl]piperidin-4-yl}-N-(4-fluorobenzyl)-2-(4-isobutoxyphenyl)acetamide, oxalate]
- Emax (read-out: 5HT2A % INH): 105%
- IC50 [3]: 0.631 nM

Compound: O=C(Cc1ccc2occc2c1)N(Cc1ccc(F)cc1)C1CCN(CCC2OCCCO2)CC1 [Example 128NLS22-A, 2-Benzofuran-5-yl-N-{1-[2-(1,3-dioxan-2-yl)ethyl]piperidin-4-yl}-N-(4-fluorobenzyl)acetamide, tartrate]
- Emax (read-out: 5HT2A % INH): 98%
- IC50 [3]: 3.16 nM

Compound: N-(2-Phenylethyl)-N-(piperidin-4-yl)-4-methoxyphenylmethylacetamide [Example 26HCH80-2]
- pIC50 (average) (inverse agonist): 7.78
- Efficacy (average) (percent maximal repression compared to ritanserin): 89
